Laboratory results from patent US5358951A, “Angiotensin II receptor blocking 2, 3, 6 substituted quinazolinones” (American Cyanamid Company, priority 1993, dated 1994).

System: vasopressor response of angiotensin II
Assay: AII Challenge: antagonism of angiotensin II vasopressor response;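 for Response Average Change: post-dose Angiotensin II-evoked rise in systolic blood pressure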
Type: in vivo
Conditions: for inhibition in vivo at 3 mg/kg / inhibition in vivo at 5 mg/kg: Rattus norvegicus; for inhibition in vivo at 3 mg/kg: iv; for inhibition in vivo at 5 mg/kg: po
Text: Conscious Male Okamoto-Aoki SHR, 16-20 weeks old, weighing approximately 330 g are purchased from Charles River Labs (Wilmington, Mass.). Conscious rats are restrained in a supine position with elastic tape. The area at the base of the tail is locally anesthetized by subcutaneous infiltration with 2% procaine. The ventral caudal artery and vein are isolated, and a cannula made of polyethylene (PE) 10-20 tubing (fused together by heat) is passed into the lower abdominal aorta and vena cava, respectively. The cannula is secured, heparinized (1,000 I.U./ml), sealed and the wound is closed. The animals are placed in plastic restraining cages in an upright position. The cannula is attached to a Statham P23 Db pressure transducer, and pulsatile blood pressure is recorded to 10-15 minutes with a Gould Brush recorder. (Chan et al., (Drug Development Res., 18:75-94, 1989). Angiotensin II (human sequence, Sigma Chem. Co., St. Louis, Mo.) of 0.05 and 0.1 ug/kg i.v. is injected into all rats (predosing response). Then a test compound, vehicle or a known angiotensin II antagonist is administered i.v., i.p. or orally to each set of rats. The two doses of angiotensin II are given to each rat again at 30, 60, 90, 120, 180, 240 and 300 minutes post dosing the compound or vehicle. The vasopressor response of angiotensin II is measured for the increase in systolic blood pressure in mmHg. The percentage of antagonism or blockade of the vasopressor response of angiotensin II by a compound is calculated using the vasopressor response (increase in systolic blood pressure) of angiotensin II of each rat predosing the compound as 100%.

[1] = 3 mg/kg I.V., AII 0.05 mcg/kg IV, 30 min post dose
[2] = 3 mg/kg I.V., AII 0.05 mcg/kg IV, 60 min post dose
[3] = 3 mg/kg I.V., AII 0.05 mcg/kg IV, 90 min post dose
[4] = 3 mg/kg I.V., AII 0.05 mcg/kg IV, 120 min post dose
[5] = 3 mg/kg I.V., AII 0.05 mcg/kg IV, 180 min post dose
[6] = 3 mg/kg I.V., AII 0.1 mcg/kg IV, 30 min post dose
[7] = 3 mg/kg I.V., AII 0.1 mcg/kg IV, 60 min post dose
[8] = 3 mg/kg I.V., AII 0.1 mcg/kg IV, 90 min post dose
[9] = 3 mg/kg I.V., AII 0.1 mcg/kg IV, 120 min post dose
[10] = 3 mg/kg I.V., AII 0.1 mcg/kg IV, 180 min post dose
[11] = 5 mg/kg P.O., AII 0.05 mcg/kg IV, 30 min post dose
[12] = 5 mg/kg P.O., AII 0.05 mcg/kg IV, 60 min post dose
[13] = 5 mg/kg P.O., AII 0.05 mcg/kg IV, 120 min post dose
[14] = 5 mg/kg P.O., AII 0.05 mcg/kg IV, 180 min post dose
[15] = 5 mg/kg P.O., AII 0.05 mcg/kg IV, 240 min post dose
[16] = 5 mg/kg P.O., AII 0.1 mcg/kg IV, 30 min post dose
[17] = 5 mg/kg P.O., AII 0.1 mcg/kg IV, 60 min post dose
[18] = 5 mg/kg P.O., AII 0.1 mcg/kg IV, 90 min post dose
[19] = 5 mg/kg P.O., AII 0.1 mcg/kg IV, 120 min post dose
[20] = 5 mg/kg P.O., AII 0.1 mcg/kg IV, 180 min post dose
[21] = 5 mg/kg P.O., AII 0.1 mcg/kg IV, 240 min post dose
[22] = 0.5 h, 3 mg/kg I.V., AII 0.05 mcg/kg IV, 30 min post dose
[23] = 0.5 h, 3 mg/kg I.V., AII 0.1 mcg/kg IV, 30 min post dose
[24] = 1 h, 3 mg/kg I.V., AII 0.05 mcg/kg IV, 60 min post dose
[25] = 1 h, 3 mg/kg I.V., AII 0.1 mcg/kg IV, 60 min post dose
[26] = 2 h, 3 mg/kg I.V., AII 0.05 mcg/kg IV, 120 min post dose
[27] = 2 h, 3 mg/kg I.V., AII 0.1 mcg/kg IV, 120 min post dose
[28] = 3 h, 3 mg/kg I.V., AII 0.05 mcg/kg IV, 180 min post dose
[29] = 3 h, 3 mg/kg I.V., AII 0.1 mcg/kg IV, 180 min post dose
[30] = […], 3 mg/kg I.V., AII 0.05 mcg/kg IV, 90 min post dose
[31] = […], 3 mg/kg I.V., AII 0.1 mcg/kg IV, 90 min post dose
[32] = 0.5 h, 5 mg/kg P.O., AII 0.05 mcg/kg IV, 30 min post dose
[33] = 0.5 h, 5 mg/kg P.O., AII 0.1 mcg/kg IV, 30 min post dose
[34] = 1 h, 5 mg/kg P.O., AII 0.05 mcg/kg IV, 60 min post dose
[35] = 1 h, 5 mg/kg P.O., AII 0.1 mcg/kg IV, 60 min post dose
[36] = 2 h, 5 mg/kg P.O., AII 0.05 mcg/kg IV, 120 min post dose
[37] = 2 h, 5 mg/kg P.O., AII 0.1 mcg/kg IV, 120 min post dose
[38] = 3 h, 5 mg/kg P.O., AII 0.05 mcg/kg IV, 180 min post dose
[39] = 3 h, 5 mg/kg P.O., AII 0.1 mcg/kg IV, 180 min post dose
[40] = 4 h, 5 mg/kg P.O., AII 0.05 mcg/kg IV, 240 min post dose
[41] = 4 h, 5 mg/kg P.O., AII 0.1 mcg/kg IV, 240 min post dose
[42] = […], 5 mg/kg P.O., AII 0.05 mcg/kg IV, 90 min post dose
[43] = […], 5 mg/kg P.O., AII 0.1 mcg/kg IV, 90 min post dose

Q: Which results are given for `CCCCc1nc2ccc(C3ON4CCCC4C3C(=O)OCC)cc2c(=O)n1Cc1ccc(-c2ccccc2-c2nnn[nH]2)cc1` (centres unmarked) [Example 62, Ethyl 2-[2-butyl-3,4-dihydro-4-oxo-3-[[2'-(1H-tetrazol-5-yl)[1,1'-biphenyl]-4-yl]methyl]-6quinazolinyl]hexahydro-pyrrolo[1,2-b]isoxazole3-carboxylate]?
A: Response Average Change [1]: 14 mmHg; Response Average Change [2]: 18 mmHg; Response Average Change [3]: 30 mmHg; Response Average Change [4]: 25 mmHg; Response Average Change [5]: 33.5 mmHg; Response Average Change [6]: 10 mmHg; Response Average Change [7]: 36 mmHg; Response Average Change [8]: 40 mmHg; Response Average Change [9]: 35 mmHg; Response Average Change [10]: 35 mmHg; Response Average Change [11]: 22.5 mmHg; Response Average Change [12]: 37.5 mmHg; Response Average Change [13]: 40 mmHg; Response Average Change [14]: 25 mmHg; Response Average Change [15]: 40 mmHg; Response Average Change [16]: 43.5 mmHg; Response Average Change [17]: 43.5 mmHg; Response Average Change [18]: 45 mmHg; Response Average Change [19]: 45 mmHg; Response Average Change [20]: 47.5 mmHg; Response Average Change [21]: 50 mmHg; inhibition in vivo at 3 mg/kg [22]: 61%; inhibition in vivo at 3 mg/kg [23]: 82%; inhibition in vivo at 3 mg/kg [24]: 49%; inhibition in vivo at 3 mg/kg [25]: 36%; inhibition in vivo at 3 mg/kg [26]: 30%; inhibition in vivo at 3 mg/kg [27]: 38%; inhibition in vivo at 3 mg/kg [28]: 6%; inhibition in vivo at 3 mg/kg [29]: 38%; inhibition in vivo at 3 mg/kg [30]: 15%; inhibition in vivo at 3 mg/kg [31]: 29%; inhibition in vivo at 5 mg/kg [32]: 44%; inhibition in vivo at 5 mg/kg [33]: -5%; inhibition in vivo at 5 mg/kg [34]: 6%; inhibition in vivo at 5 mg/kg [35]: -5%; inhibition in vivo at 5 mg/kg [36]: 0%; inhibition in vivo at 5 mg/kg [37]: -8%; inhibition in vivo at 5 mg/kg [38]: 38%; inhibition in vivo at 5 mg/kg [39]: -14%; inhibition in vivo at 5 mg/kg [40]: 0%; inhibition in vivo at 5 mg/kg [41]: -20%; inhibition in vivo at 5 mg/kg [42]: 19%; inhibition in vivo at 5 mg/kg [43]: -8%

Q: How did the “Response Average Change” value [1] turn out when `CCCCc1nc2ccc([C@]3(C)C[C@@H]4CCCN4O3)cc2c(=O)n1Cc1ccc(-c2ccccc2-c2nnn[nH]2)cc1` (relative stereo) [Example 59, Trans-2-Butyl-6-(hexahydro-2-methylpyrrolo[1,2-b]isoxazol-2-yl)-3-[[2'-(1H-tetrazol-5-yl)[1,1'-biphenyl]-4-yl]methyl]-4(3H)-quinazolinone] was run?
A: 17.5 mmHg

Q: And the “Response Average Change” value [2]?
A: 9 mmHg

Q: What about the “Response Average Change” value [3] of the same compound?
A: 18.5 mmHg

Q: And the “Response Average Change” value [4]?
A: 9.5 mmHg

Q: What about the “Response Average Change” value [5] of the same compound?
A: 20 mmHg

Q: And the “Response Average Change” value (3 mg/kg I.V., AII 0.05 mcg/kg IV, 240 min post dose)?
A: 18.5 mmHg

Q: What about the “Response Average Change” value [6] of the same compound?
A: 21 mmHg

Q: What about the “Response Average Change” value [7] of the same compound?
A: 23.5 mmHg

Q: What about the “Response Average Change” value [8] of the same compound?
A: 17.5 mmHg

Q: And the “Response Average Change” value [9]?
A: 12.5 mmHg

Q: And the “Response Average Change” value [10]?
A: 22.5 mmHg

Q: And the “Response Average Change” value (3 mg/kg I.V., AII 0.1 mcg/kg IV, 240 min post dose)?
A: 27.5 mmHg

Q: What about the “Response Average Change” value [11] of the same compound?
A: 19 mmHg

Q: What about the “Response Average Change” value [12] of the same compound?
A: 12.5 mmHg

Q: And the “Response Average Change” value (5 mg/kg P.O., AII 0.05 mcg/kg IV, 90 min post dose)?
A: 17.5 mmHg

Q: And the “Response Average Change” value [13]?
A: 24 mmHg

Q: And the “Response Average Change” value [14]?
A: 18.5 mmHg

Q: And the “Response Average Change” value [15]?
A: 12.5 mmHg

Q: And the “Response Average Change” value (5 mg/kg P.O., AII 0.05 mcg/kg IV, 300 min post dose)?
A: 12.5 mmHg

Q: What about the “Response Average Change” value [16] of the same compound?
A: 22.5 mmHg

Q: What about the “Response Average Change” value [17] of the same compound?
A: 12.5 mmHg

Q: And the “Response Average Change” value [18]?
A: 17.5 mmHg

Q: What about the “Response Average Change” value [19] of the same compound?
A: 17.5 mmHg

Q: And the “Response Average Change” value [20]?
A: 14 mmHg

Q: And the “Response Average Change” value [21]?
A: 10 mmHg

Q: What about the “Response Average Change” value (5 mg/kg P.O., AII 0.1 mcg/kg IV, 300 min post dose) of the same compound?
A: 10 mmHg

Q: What about the inhibition in vivo at 3 mg/kg [22] of the same compound?
A: 49%

Q: What about the inhibition in vivo at 3 mg/kg [23] of the same compound?
A: 49%

Q: And the inhibition in vivo at 3 mg/kg [24]?
A: 74%

Q: And the inhibition in vivo at 3 mg/kg [25]?
A: 43%

Q: And the inhibition in vivo at 3 mg/kg [26]?
A: 72%

Q: What about the inhibition in vivo at 3 mg/kg [27] of the same compound?
A: 70%

Q: What about the inhibition in vivo at 3 mg/kg [28] of the same compound?
A: 41%

Q: And the inhibition in vivo at 3 mg/kg [29]?
A: 45%

Q: What about the inhibition in vivo at 3 mg/kg (4 h, 3 mg/kg I.V., AII 0.05 mcg/kg IV, 240 min post dose) of the same compound?
A: 46%

Q: What about the inhibition in vivo at 3 mg/kg (4 h, 3 mg/kg I.V., AII 0.1 mcg/kg IV, 240 min post dose) of the same compound?
A: 33%

Q: What about the inhibition in vivo at 3 mg/kg [30] of the same compound?
A: 46%

Q: What about the inhibition in vivo at 3 mg/kg [31] of the same compound?
A: 57%

Q: What about the inhibition in vivo at 5 mg/kg [32] of the same compound?
A: 49%

Q: And the inhibition in vivo at 5 mg/kg [33]?
A: 49%

Q: And the inhibition in vivo at 5 mg/kg [34]?
A: 67%

Q: And the inhibition in vivo at 5 mg/kg [35]?
A: 72%

Q: What about the inhibition in vivo at 5 mg/kg [36] of the same compound?
A: 36%

Q: And the inhibition in vivo at 5 mg/kg [37]?
A: 60%

Q: And the inhibition in vivo at 5 mg/kg [38]?
A: 51%

Q: And the inhibition in vivo at 5 mg/kg [39]?
A: 68%

Q: What about the inhibition in vivo at 5 mg/kg [40] of the same compound?
A: 67%

Q: And the inhibition in vivo at 5 mg/kg [41]?
A: 77%

Q: And the inhibition in vivo at 5 mg/kg (5 h, 5 mg/kg P.O., AII 0.05 mcg/kg IV, 300 min post dose)?
A: 67%

Q: And the inhibition in vivo at 5 mg/kg (5 h, 5 mg/kg P.O., AII 0.1 mcg/kg IV, 300 min post dose)?
A: 77%

Q: And the inhibition in vivo at 5 mg/kg [42]?
A: 53%

Q: And the inhibition in vivo at 5 mg/kg [43]?
A: 60%
